US20160244486A1, “AB Modulating Peptides” (ALZHYME PTY LTD, priority 2013, published 2016)
Square brackets hold non-standard residues; d marks the D form. Ends that are not written are not given here. Peptide text beside a SMILES is read from it. ξ: configuration not given here. ξT = CC(O)C(N)C(=O)O

Tests used:
[1] = In vitro peptide stability in 10% rat brain homogenate, RP-HPLC quantification; format: in vitro ADME; conditions: 37° C.
Method: Peptides were prepared as a 1 mM solution in phosphate-buffered saline. 20 μl of the peptide solution was diluted in 10% rat brain homogenate (in 1× phosphate-buffered saline and 0.5% Triton X-100).
The solution was incubated at 37° C. for different times, and the reaction was stopped by adding the Complete mixture of protease inhibitors (Roche Molecular Biochemicals, Mannheim, Germany). For ANA5 and RI-ANA5, the bulk of the brain proteins (but not the peptides) were precipitated in cold methanol (1:4 (v/v) mixture/MeOH) for 1 hr at −20° C. The precipitated proteins were pelleted by centrifugation at 10,000 g for 10 min at 4° C. The supernatant containing the peptide was concentrated five times under vacuum and separated by RP-HPLC. Due to recovery issues with the longer ANA1 and RI-ANA1 peptides, samples were instead lyophilized and then reconstituted in a TFA solution, prior to separation by RP-HPLC.
The area of the peak (UV absorbance at 205 nm) corresponding to the intact peptide was measured and compared with an equivalent sample incubated in phosphate-buffered saline.
(iii) In vitro assay of peptide stability—Peptides were prepared as a 1 mM solution in PBS. 20 μl of the peptide solution was diluted in 10% rat brain homogenate (in PBS+0.5% Triton X-100). The solution was incubated at 37° C. for different times, and the reaction was stopped by adding the Complete mixture of protease inhibitors (Roche Molecular Biochemicals, Mannheim, Germany). For ANA5 and 9M S.A., the bulk of the brain proteins (but not the peptides) were precipitated in cold methanol (1:4 (v/v) mixture/methanol) for 1 h at −20° C. The precipitated proteins were pelleted by centrifugation (10.000 g, 10 min, 4° C.). The supernatant containing the peptide was concentrated five times under vacuum and separated by reversed-phase HPLC (RP-HPLC). Due to recovery issues with the longer ANA1 and RI-ANA1 peptides, samples were instead lyophilized, extracted in TFA, centrifuged to remove insoluble material and separated by RP-HPLC. The area of the peak (UV absorbance at 205 nm) corresponding to the intact peptide was measured and compared with an equivalent sample incubated in PBS.
Peptides were prepared as 1 mM solutions in PBS and diluted in 10% rat brain homogenate. Solutions were incubated at 37° C. for different times, and the reactions were stopped by addition of protease inhibitors. Samples were processed as described herein in the General Materials/Methods, separated by RP-HPLC and the level of intact peptide was determined at each time point.

[2] = target: oligomeric Aβ42 (human synthetic Aβ42, pre-formed oligomers) (human) (UniProt P05067); assay: SPR (Biacore 3000), 15M S.A. immobilised on CM5, oAβ42 injected; 1:1 binding model with drifting baseline; overall estimate across the oligomer mixture
amyloid plaques = assay: Ex vivo staining of amyloid plaques in brain tissue sections; conditions: brain tissue from 8 month old 5× FAD AD model mice
Method: (x) Immunohistochemistry—Brains were obtained from 8 month old 5× FAD AD model mice Oakley, F-F et al (2006) or age-matched non-transgenic controls and post-fixed and embedded in the freezing medium as described in Drummond, E. S. et al (2013). Serial sagittal cryosections were cut at a thickness of 10 μm. Positive control staining for amyloid was performed using Thioflavin S (ThioS) as described in Youmans, K. L, et al (2012). After the removal of the freezing medium by serial changes of TBS pH 7.4, the slide was incubated for 1 h at room temperature in blocking buffer (10% goat serum in TBS). The slides were then stained with 1 μM TMR-labelled 15M S.A. peptide in 2% goat-serum-PBS for 2 hours at room temperature. Excess unbound peptide was removed prior to mounting by extensive washing with TBS. The coverslip was mounted using Prolong Gold mounting media (Life Technologies).
We investigated whether TMR-labelled 15M S.A. could be used to stain amyloid plaques ex vivo using brain tissue sections from AD model mice, in comparison with Thioflavin S (Thio S), which binds mature amyloid deposits and readily detects these plaques.

Sequence of UniProt P05067 (P05067 672-713 limits assumed): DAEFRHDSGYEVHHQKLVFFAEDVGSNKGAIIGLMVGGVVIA

Compound	intact peptide amount ([1]; time 0 min) [µg]	intact peptide amount ([1]; time 15 min) [µg]	intact peptide amount ([1]; time 30 min) [µg]	intact peptide amount ([1]; time 300 min) [µg]	further results
CSCC[C@@H](NC(=O)[C@@H](CC(C)C)NC(=O)[C@@H](CCCCN)NC(=O)[C@H](N)CCCNC(=N)N)C(=O)N[C@H](CCC(N)=O)C(=O)N1CCC[C@@H]1C(=O)NC(C(=O)N[C@H](CCCNC(=N)N)C(=O)N[C@H](CC(N)=O)C(=O)N[C@H](CCCNC(=N)N)C(=O)N[C@H](CCCNC(=N)N)C(=O)N[C@H](CC(N)=O)C(=O)N1CCC[C@@H]1C(=O)N[C@H](CC(N)=O)C(=O)NC(C(=O)O)C(C)O)C(C)O (stereo partly drawn) [RI-ANA1, Arg-Lys-Leu-Met-Gln-Pro-Thr-Arg-Asn-Arg-Arg-Asn-Pro-Asn-Thr] (H-[dR][dK][dL][dM][dQ][dP][ξT][dR][dN][dR][dR][dN][dP][dN][ξT]-OH; N-terminus and C-terminus assumed)	29.8	27.8	29.4	33.5	intact peptide amount ([1]; time 0 min, listed as 15M S.A.): 29.80 µg; intact peptide amount ([1]; time 15 min, listed as 15M S.A.): 27.80 µg; intact peptide amount ([1]; time 30 min, listed as 15M S.A.): 29.40 µg; intact peptide amount ([1]; time 300 min, listed as 15M S.A.): 33.50 µg
CSCC[C@@H](NC(=O)[C@@H](CC(C)C)NC(=O)[C@@H](CCCCN)NC(=O)[C@H](N)CCCNC(=N)N)C(=O)N[C@H](CCC(N)=O)C(=O)N1CCC[C@@H]1C(=O)N[C@@H](C(=O)N[C@H](CCCNC(=N)N)C(=O)N[C@H](CC(N)=O)C(=O)O)[C@H](C)O [RI-ANA5, Arg-Lys-Leu-Met-Gln-Pro-Thr-Arg-Asn]	14	12.35	12.35	12.5	intact peptide amount ([1]; time 0 min, listed as 9M S.A.): 14.11 µg; intact peptide amount ([1]; time 300 min, listed as 9M S.A.): 12.51 µg
NRTPQMLKR [ANA5, Asn-Arg-Thr-Pro-Gln-Met-Leu-Lys-Arg]	12	0.47	0	0	intact peptide amount ([1]; time 0 min, listed as 9mer): 12.00 µg; intact peptide amount ([1]; time 30 min, listed as 9 mer): none; intact peptide amount ([1]; time 30 min, listed as 9mer): 0 µg
RI-ANA1 (Arg-Lys-Leu-Met-Gln-Pro-Thr-Arg-Asn-Arg-Arg-Asn-Pro-Asn-Thr, all D-amino acids) (peptide)					Kd [2]: 11 µM
TNPNRRNRTPQMLKR [ANA1, Thr-Asn-Pro-Asn-Arg-Arg-Asn-Arg-Thr-Pro-Gln-Met-Leu-Lys-Arg]	25.8	5.6	0.03	0.02	intact peptide amount ([1]; time 0 min, listed as 15mer): 25.78 µg; intact peptide amount ([1]; time 15 min, listed as 15mer): 5.55 µg; intact peptide amount ([1]; time 30 min, listed as 15 mer): trace amounts; intact peptide amount ([1]; time 30 min, listed as 15mer): 0.03 µg
Thioflavin S [Thio S]					staining of amyloid deposits (amyloid plaques): extensive plaques
